Source: US20210107993A1, “CARTYRIN COMPOSITIONS AND METHODS FOR USE” (Poseida Therapeutics, Inc., priority 2018, published 2021)

Columns and labels:
[1] = test system: cells; experiment: AP1903 amount for effective signaling of cells in vitro; type: cell-based; conditions: 1600 Da MW
Procedure: The fixed dose of AP1903 for injection used, for example, may be 0.4 mg/kg intravenously infused over 2 hours. The amount of AP1903 needed in vitro for effective signaling of cells is 10-100 nM (1600 Da MW). This equates to 16-160 μg/L or 0.016-1.6 μg/kg (1.6-160 μg/kg). Doses up to 1 mg/kg were well-tolerated in the Phase I study of AP1903 described above. Therefore, 0.4 mg/kg may be a safe and effective dose of AP1903 for this Phase I study in combination with the therapeutic cells.

[2] = target: T1, iC9 safety switch (Homo sapiens, UniProt P62942, F37V); experiment: iC9 safety switch test: viability by flow cytometry using 7-AAD after AP1903; type: cell-based
T1 construct: expressed in transfected cells
T1 sequence (P62942 with tags, fused parts or gaps F37V): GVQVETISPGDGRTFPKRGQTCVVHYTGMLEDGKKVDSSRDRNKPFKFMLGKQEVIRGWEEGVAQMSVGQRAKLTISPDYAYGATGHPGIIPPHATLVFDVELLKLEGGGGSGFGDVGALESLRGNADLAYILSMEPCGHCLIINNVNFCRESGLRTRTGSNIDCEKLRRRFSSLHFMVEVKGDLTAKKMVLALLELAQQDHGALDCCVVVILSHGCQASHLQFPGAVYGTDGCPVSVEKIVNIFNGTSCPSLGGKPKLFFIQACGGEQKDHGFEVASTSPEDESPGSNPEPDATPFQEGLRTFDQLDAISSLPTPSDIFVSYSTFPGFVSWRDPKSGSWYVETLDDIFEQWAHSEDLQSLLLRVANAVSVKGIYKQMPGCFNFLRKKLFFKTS
Text: Human pan T-cells were nucleofected using an Amaxa 4D nucleofector with one of four piggyBac transposons. Modified T cells receiving the “mock” condition were nucleofected with an empty piggyBac transposon. Modified T cells received either a piggyBac transposon containing a therapeutic agent alone (a sequence encoding a CARTyrin) or a piggyBac transposon containing an integrated iC9 sequence and a therapeutic agent (a sequence encoding a CARTyrin).
To test the iC9 safety switch, each of the four modified T cells were incubated for 24 hours with 0, 0.1 nM, 1 nM, 10 nM, 100 nM or 1000 nM AP1903 (an induction agent for […]). Viability was assessed by flow cytometry using 7-aminoactinomycin D (7-AAD), a fluorescent intercalator, as a marker for cells undergoing apoptosis.
Cell viability was assessed at day 12 (see FIG. 9). […] Moreover, cell viability was assessed at day 19 (see FIG. 10). […]
A quantification of the aggregated results was performed and is provided in FIG. 11, showing the significant impact of the iC9 safety switch on the percent cell viability as a function of the concentration of the induction agent (AP1903) of the iC9 switch for each modified cell type at either day 12 (FIG. 9 and left graph) or day 19 (FIG. 10 and right graph).

[3] = test system: cells; conditions: cited from earlier work
[4] = cited from earlier work
[5] = test system: Pan T cells; experiment: Expansion of BCMA CAR-T cells with CSR over 19 day culture; type: cell-based, human; conditions: CSR transient (mRNA) or stable (piggyBac)
Text: FIG. 36 is a graph showing that delivery of CSR enhances the expansion of CAR-T cells. CSRs were delivered to CAR-T cells either transiently by mRNA or stably by piggyBac™. Pan T cells isolated from the blood of a normal donor were genetically modified using the piggyBac™ DNA modification system and the standard Poseida process. Cells were co-electroporated in a single reaction with mRNA encoding the Super piggyBac transposase enzyme (SPB), a transposon encoding a BCMA CAR and selection gene, along with an additional mRNA encoding a CSR (either CD28z or CD2z; resulting in transient expression) or a CD19 mRNA control, or, with a transposon encoding a BCMA CAR, selection gene and a CSR (either CD28z or CD2z; resulting in stable expression). The cells were subsequently stimulated with agonist mAbs anti-CD2, anti-CD3 and anti-CD28, and were later selected for genetic modification over the course of a 19 day culture period. At the end of the initial culture period all T cells expressed the CAR, indicating successful selection for genetically-modified cells (data not shown). Bars represent total live CAR-T cells in well and numbers indicate fold-enhancement of expansion above CAR-T cells produced in the absence of a CSR or a CD19 mRNA control.

In the case of CC[C@H](C(=O)N1CCCC[C@H]1C(=O)O[C@H](CCc1ccc(OC)c(OC)c1)c1cccc(OCC(=O)NCCNC(=O)COc2cccc([C@@H](CCc3ccc(OC)c(OC)c3)OC(=O)[C@@H]3CCCCN3C(=O)[C@@H](CC)c3cc(OC)c(OC)c(OC)c3)c2)c1)c1cc(OC)c(OC)c(OC)c1 (relative stereo) [AP1903, 2-Piperidinecarboxylic acid, 1-[(2S)-1-oxo-2-(3,4,5-trimethoxyphenyl)butyl]-, 1,2-ethanediylbis[imino(2-oxo-2,1-ethanediyl)oxy-3,1-phenylene[(1R)-3-(3,4-dimethoxyphenyl)propylidene]]ester, [2S-[1(R*),2R*[S*[S*[1(R*),2R*]]]]]-(9C1)], the “amount needed in vitro for effective signaling of cells, converted” value [1] is listed as 16 to 160 µg/L, the “concentration at which AP1903 induces apoptosis (lowest concentration of the study)” value ([2]; T cells containing iC9 construct, 24 hours incubation) is listed as ≤ 0.1 nM and the “amount needed in vitro for effective signaling of cells” value [3] is listed as 10 to 100 nM. The safety and tolerability ([4]; 0.01, 0.05, 0.1, 0.5 and 1.0 mg/kg IV over 2 hours) was “safe and well tolerated at all dose levels”, the “mean Cmax” value ([4]; 0.01-1.0 mg/kg infused IV over 2 hours, healthy volunteers) was 10 to 1275 ng/mL and the “plasma levels versus dose” value ([4]; 0.01-1.0 mg/kg) was “directly proportional to dose”. For the same molecule, the well-tolerated dose ([4]; Phase I study) was “up to 1 mg/kg”, the “plasma level as % of maximal concentration, 0.5 hours post-dose” value ([4]; after initial infusion period) was “approximately 18%” and the “plasma level as % of maximal concentration, 2 hours post-dose” value ([4]; after initial infusion period) was ~7%. For the same molecule, the “plasma level as % of maximal concentration, 10 hours post-dose” value ([4]; after initial infusion period) was ~1% and the pharmacokinetic profile ([4]; human, in vivo) was “favorable pharmacokinetic profile”.

In the case of “iC9 safety switch: ligand binding region (FKBP12 F36V), a linker, and a truncated caspase 9 polypeptide (SEQ ID NO: 18032)”, the “apoptosis induced by presence of the iC9 safety switch” value ([2]; with induction agent AP1903, by day 12 post-nucleofection) is reported as “induces apoptosis in a significant majority of cells”.

With “CD28z CSR: chimeric stimulatory receptor: wild type CD28 and CD3z intracellular stimulation domain, SEQ ID NO: 17910” the “expansion of CAR-T cells” value [5] was “a greater degree of expansion of the CAR-T cells”.

B1: CD2z CSR: chimeric stimulatory receptor: wild type CD2 and CD3z intracellular stimulation domain, SEQ ID NO: 17912 (protein)
chain: MSFPCKFVASFLLIFNVSSKGAVSKEITNALETWGALGQDINLDIPSFQMSDDIDDIKWEKTSDKKKIAQFRKEKETFKEKDTYKLFKNGTLKIKHLKTDDQDIYKVSIYDTKGKNVLEKIFDLKIQERVSKPKISWTCINTTLTCEVMNGTDPELNLYQDGKHLKLSQRVITHKWTTSLSAKFKCTAGNKVSKESSVEPVSCPEKGLDIYLIIGICGGGSLLMVFVALLVFYITKRKKQRSRRNDEELETRAHRVATEERGRKPHQIPASTPQNPATSQHPPPPPGHRSQAPSHRPPPPGHRVQHQPQKRPPAPSGTQVHQQKGPPLPRPRVQPKPPHGAAENSLSPSSNRVKFSRSADAPAYKQGQNQLYNELNLGRREEYDVLDKRRGRDPEMGGKPRRKNPQEGLYNELQKDKMAEAYSEIGMKGERRRGKGHDGLYQGLSTATKDTYDALHMQALPPR
With B1 the “expansion of CAR-T cells” value [5] was “a greater degree of expansion of the CAR-T cells”.
